Tests used:
mm006 = experiment: Oxygen consumption rate (OCR), mm006; format: cell-based, mouse (C57BL/6)
Description: Measurement of oxygen consumption rate (OCR). Cells were maintained in growth medium consisting of 10% FBS at 37° C. with 5% CO2 and seeded at 25,000 cells per well in a 96-well XF96 cell culture microplates (Agilent, Santa Clara, CA). An 96 well XF sensor cartridge was hydrated and equilibrated with 200 ul calibrant in each well at 37° C. without CO2 overnight. Growth media was replaced with 150 μL DMEM based assay media (a non-buffered medium including 2 mM L-glutamine but no sodium bicarbonate (buffering agent), glucose, or sodium pyruvate, Agilent, Santa Clara, CA) the next day and cells were incubated CO2 free for 1 hour before the measurement of OCR by a Seahorse XFe Extracellular Flux Analyzer (Agilent, Santa Clara, CA), which measures uptake and excretion of metabolic end products in real time. After baseline measurements, 20 μl assay medium containing control vehicle or drugs were injected into corresponding wells. OCRs were measured periodically and can be reported in pmoles/minute or normalized against baseline measurements before treatment.

MCF-7 cells = experiment: TMRE mitochondrial membrane potential in MCF-7 cells; format: cell-based, human; conditions: 10 μM, FIGS. 4A-4B
Description: FIG. 4A. Effect of HCB on mitochondrial cross membrane potential Δψ in MCF-7 cells. MCF-7 cells were seeded at 20,000 cells/well into a clear bottom black 96 well microplate. After treatments were added for 2 hours (FCCP control for 10 minutes), TMRE (tetramethylrhodamine, ethyl ester, Ex/Em 549/575) was added to a final concentration of 400 nM and incubation continued for additional 30 minutes. Media was removed and cells washed twice with PBS and 100 ul of PBS was added in the end. TMRE fluorescence was then measured with a plate reader. Results are reported as mean fluorescence intensity±S.D. (n=8, * indicates statistically significant difference from the DMSO control).
FIG. 4B. Effect of DCB and HCB on mitochondrial trans-membrane potential Δψ in MCF-7 cells. […] TMRE fluorescence was then measured with a plate reader. Results are reported as mean fluorescence intensity±S.D. (n=8, * indicates statistically significant difference from the DMSO control).
Mitochondrial cross membrane potential (Δψ) alteration in MCF-7 cells were measured by monitoring Δψ sensitive TMRE fluorescence intensity. […] TMRE fluorescence was then measured with a plate reader. Results are reported as mean fluorescence intensity±S.D. (n=8, * indicates statistically significant difference from the DMSO control).
TMRE Δψm measurement. […] Fluorescence was read at Ex 549 nm/Em 575 nm. […]

CYP3A4 [1] = target: T1, CYP3A4 (Homo sapiens, UniProt P08684); experiment: CYP3A4 binding by Soret band spin shift analysis; conditions: FIG. 16, read-out: estimated Kd
Description: HCB induces a low-to-high spin transition in 3A4, meaning that it binds within the active site near the heme (FIG. 16).
A. HBB binds soluble CYP3A4 Δ3-22, dependent on the heme iron. The HBB binding spectrum is shown in red. Control spectra with dithionite reduction (blue) and CO adduct formation (green) are shown as well as untreated CYP3A4 Δ3-22 (black). B. HBB docked to truncated CYP3A4 Δ3-22 induces a low to high spin shift (left) with a Ks=74±7 μM (right). (FIG. 16)
Target sequence in this assay (P08684 with tags, fused parts or gaps): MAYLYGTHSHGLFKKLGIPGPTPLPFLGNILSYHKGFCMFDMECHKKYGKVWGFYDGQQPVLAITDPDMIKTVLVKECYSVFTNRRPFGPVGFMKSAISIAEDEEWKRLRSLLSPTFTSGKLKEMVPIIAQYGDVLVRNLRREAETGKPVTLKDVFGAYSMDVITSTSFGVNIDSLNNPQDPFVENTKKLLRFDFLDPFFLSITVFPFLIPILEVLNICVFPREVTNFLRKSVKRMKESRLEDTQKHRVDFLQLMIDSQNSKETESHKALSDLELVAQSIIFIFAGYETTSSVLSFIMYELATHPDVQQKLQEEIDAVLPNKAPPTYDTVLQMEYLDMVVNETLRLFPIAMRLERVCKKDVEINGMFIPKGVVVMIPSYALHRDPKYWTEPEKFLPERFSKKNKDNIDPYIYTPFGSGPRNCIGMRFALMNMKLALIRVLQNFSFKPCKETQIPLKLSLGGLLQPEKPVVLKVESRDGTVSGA

CYP2C8 = target: T2, CYP2C8 (Homo sapiens, UniProt P10632); experiment: Stability with recombinant human CYP2C8; format: in vitro ADME; conditions: 10 μM HCB, recombinant human CYP2C8, NADPH 2 mM
T2 construct: purchased Corning; host or cells: insect cells (microsomes)
T2 sequence (P10632 1-490): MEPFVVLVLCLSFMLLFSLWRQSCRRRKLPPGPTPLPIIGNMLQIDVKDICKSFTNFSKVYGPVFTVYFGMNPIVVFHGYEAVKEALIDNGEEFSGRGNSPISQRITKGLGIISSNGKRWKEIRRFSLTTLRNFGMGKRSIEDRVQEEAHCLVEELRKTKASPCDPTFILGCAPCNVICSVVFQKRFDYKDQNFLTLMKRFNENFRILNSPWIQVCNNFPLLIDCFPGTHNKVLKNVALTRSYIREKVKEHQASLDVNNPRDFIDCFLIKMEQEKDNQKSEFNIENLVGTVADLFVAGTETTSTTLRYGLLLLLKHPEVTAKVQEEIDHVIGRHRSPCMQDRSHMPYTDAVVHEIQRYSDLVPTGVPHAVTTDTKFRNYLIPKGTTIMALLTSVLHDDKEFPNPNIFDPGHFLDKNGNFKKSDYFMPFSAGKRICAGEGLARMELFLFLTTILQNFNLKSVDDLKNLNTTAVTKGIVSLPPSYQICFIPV
Description: Stability of HCB with recombinant human CYP3A4 and CYP2C8 enzymes was evaluated. 10 μM HCB was tested wich CYP3A4 and 2C8 (200 pmol/L) (Table 8). NADPH (2 mM) was added as a cofactor. Total volume was 200 μL.
HCB was incubated for 0, 30, or 60 min at 37° C. Incubations were quenched with 2 volumes of acetonitrile followed by centrifugation for 10 min at 16,000 g.

MCF-7 tumors = conditions: background statement; cited from earlier work
CYP3A4 [2] = target: T1, CYP3A4; design: purchased Corning; host or cells: insect cells (microsomes); conditions: inhibiting EET biosynthesis; background statement; cited from earlier work
Target sequence in this assay (P08684 whole entry): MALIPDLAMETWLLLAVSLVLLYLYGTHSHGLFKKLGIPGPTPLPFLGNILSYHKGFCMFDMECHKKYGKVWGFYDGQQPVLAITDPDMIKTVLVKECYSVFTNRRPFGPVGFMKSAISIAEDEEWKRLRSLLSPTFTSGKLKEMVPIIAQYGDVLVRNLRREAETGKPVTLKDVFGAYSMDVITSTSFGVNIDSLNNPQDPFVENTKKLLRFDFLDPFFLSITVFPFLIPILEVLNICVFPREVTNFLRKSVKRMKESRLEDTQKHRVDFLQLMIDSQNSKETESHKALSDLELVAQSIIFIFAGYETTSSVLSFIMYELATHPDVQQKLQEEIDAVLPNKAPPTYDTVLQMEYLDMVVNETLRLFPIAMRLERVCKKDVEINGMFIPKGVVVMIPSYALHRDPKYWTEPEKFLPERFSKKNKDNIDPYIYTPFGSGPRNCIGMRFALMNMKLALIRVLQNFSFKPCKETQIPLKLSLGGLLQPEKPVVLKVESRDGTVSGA

Row | Compound | OCR Inhibition [HCB] (uM) v vs. control (P < 0.05) (mm006) | effect on mitochondrial membrane potential (MCF-7 cells) | Kd (CYP3A4 [1]) | parent metabolite peak area after 60 min (CYP2C8) | growth of the MCF-7 ER+ mammary tumor model (MCF-7 tumors) | fold more potent than metformin (CYP3A4 [2])
1 | CCCCCCNC(=N)NC(=N)NCC12C3C4C5C3C1C5C42 (stereo not drawn) [HCB, Hexyl Cubanomethyl Biguanide] | 20 µM | inhibited the mitochondrial membrane potential | 74 µM | 99.78% |  | 
2 | CCCCCCNC(=N)NC(=N)NCc1ccccc1 [HBB, N1-hexyl-N5-benzyl-biguanide] |  |  |  |  | inhibits growth | 100 fold

— patent publication US20240067603A1, “CUBANYL BIGUANIDE COMPOUNDS” (REGENTS OF THE UNIVERSITY OF MINNESOTA, priority 2020, published 2024)
